In patent US20210278408A1, “METHODS OF TREATMENT OF CANCER WITH SUBSTITUTED PYRROLE AND PYRAZOLE COMPOUNDS AND DIAGNOSIS OF CANCERS SUSCEPTIBLE TO TREATMENT WITH SUBSTITUTED PYRROLE AND PYRAZOLE COMPOUNDS” (Bantam Pharmaceutical, LLC, priority 2018, published 2021):
Like-named read-outs stand apart in the source and are kept apart here.

System: 407 cancer cell lines
Experiment: Cell viability of cancer cell lines (IC50), CellTiter-Glo Viability Assay, 96 h
Assay type: cell-based
Settings: for IC50: read-out: Absolute IC50
Procedure: Viability was determined by using the 50% inhibitory concentration (IC50) as determined with the CellTiter-Glo® Viability Assay (Promega).
Experiments were initiated by first thawing and equilibrating the CellTiter-Glo® Buffer to room temperature. The lyophilized CellTiter-Glo® Substrate was also equilibrated to room temperature. The lyophilized substrate was reconstituted with the CellTiter-Glo® buffer to form the CellTiter-Glo® Reagent.
Cells were harvested during the logarithmic growth period, counted, and the cell concentration adjusted to 4.44×10^4 cells/mL using culture medium.
Cells were allowed to grow overnight and the following day, the TO reading was obtained by adding 10 μL culture medium to each well of Plate A. The plate was allowed to equilibrate at room temperature for thirty minutes, after which 50 μL CellTiter-Glo® reagent was added to each well. The contents were mixed for 5 min on an orbital shaker to induce cell lysis. Plates were incubated for 20 minutes to stabilize the luminescent signal and the TO luminescence recorded.
Test plate B was incubated for 96 h in the humidified incubator at 37° C. with 5% CO2.
Following the incubation, the plate was equilibrated at room temperature for thirty minutes. CellTiter-Glo® (50 μL) was added to each well of the plate and contents mixed for five minutes on an orbital shaker to induce cell lysis. The luminescent signal was allowed to stabilize at room temperature for 20 minutes and the luminescence recorded.
IC50 (EC50) was calculated using a dose-response curve, fitted using a nonlinear regression model with a sigmoidal dose response. Survival rate was calculated using the formula:
The Surviving rate (%)=(LumTest article−LumMedium control)/(LumNon-treated−LumMedium control)×100%.
Absolute IC50 (EC50) was calculated according to the dose-response curve generated by the statistical software (GraphPad Prism 5.0).

## N.N.[Cl][Pt][Cl] [Cisplatin, reference compound]
MV-4-11 cells, 96 h
  IC50: 0.41 µM
MX-1
  IC50: 2.39 µM
Molt-4
  IC50: 0.7 µM
MsTo 211H
  IC50: 2.5 µM
NAMALWA CSN/70
  IC50: 0.28 µM
NAMALWA cells, 96 h
  IC50: 0.63 µM
NB4 cells, 96 h
  IC50: 0.84 µM
NCI-H23 cells, 96 h
  IC50: 0.75 µM
NCI-H69 cells, 96 h
  IC50: 3.28 µM
NCI-H82, 96 h
  IC50: 1.83 µM
NCI-H146 cells, 96 h
  IC50: 1.81 µM
NCI-H187
  IC50: 0.68 µM
NCI-H209 cells, 96 h
  IC50: 0.44 µM
NCI-H226
  IC50: 3.56 µM
NCI-H292 cells, 96 h
  IC50: 2.25 µM
NCI-H322 cells, 96 h
  IC50: 10.8 µM
NCI-H358 cells, 96 h
  IC50: 6.07 µM
NCI-H441 cells, 96 h
  % inhibition at top conc.: 74.99%
  IC50: 6.18 µM
NCI-H446 cells, 96 h
  IC50: 1.93 µM
NCI-H460 cells, 96 h
  IC50: 2.77 µM
NCI-H508 cells, 96 h
  IC50: 8.02 µM
NCI-H520 cells, 96 h
  IC50: 10.7 µM
NCI-H522 cells, 96 h
  IC50: 4.49 µM
NCI-H526 cells, 96 h
  IC50: 0.33 µM
NCI-H596
  IC50: 2.06 µM
NCI-H661 cells, 96 h
  IC50: 6.42 µM
NCI-H716 cells, 96 h
  IC50: 8.99 µM
NCI-H727 cells, 96 h
  IC50: 13.2 µM
NCI-H747 cells, 96 h
  IC50: 7.3 µM
NCI-H820 cells, 96 h
  IC50: 0.79 µM
NCI-H929
  IC50: 3.07 µM
NCI-H1048 cells, 96 h
  IC50: 1.37 µM
NCI-H1155 cells, 96 h
  IC50: 2.15 µM
NCI-H1299 cells, 96 h
  IC50: 2.67 µM
NCI-H1373
  IC50: 1.45 µM
NCI-H1395
  IC50: 2.91 µM
NCI-H1435
  IC50: 14.8 µM
NCI-H1437 cells, 96 h
  IC50: 5.67 µM
NCI-H1563
  IC50: 16.9 µM
NCI-H1568 cells, 96 h
  IC50: 0.95 µM
NCI-H1573 cells, 96 h
  IC50: 10.6 µM
NCI-H1581 cells, 96 h
  IC50: 2.98 µM
NCI-H1648 cells, 96 h
  IC50: 8.25 µM
NCI-H1650
  IC50: 5.12 µM
NCI-H1651 cells, 96 h
  IC50: 0.62 µM
NCI-H1666 cells, 96 h
  IC50: 6.16 µM
NCI-H1688
  IC50: 13.8 µM
NCI-H1703 cells, 96 h
  IC50: 6.11 µM
NCI-H1781 cells, 96 h
  IC50: 0.64 µM
NCI-H1838 cells, 96 h
  IC50: 6.41 µM
NCI-H1915 cells, 96 h
  IC50: 5.23 µM
NCI-H1975 cells, 96 h
  IC50: 3.24 µM
NCI-H1993 cells, 96 h
  IC50: 10.4 µM
NCI-H2009
  IC50: 16.7 µM
NCI-H2052
  IC50: 5.77 µM
NCI-H2087 cells, 96 h
  IC50: 1.01 µM
NCI-H2122 cells, 96 h
  IC50: 8.93 µM
NCI-H2170 cells, 96 h
  IC50: 1.02 µM
NCI-H2228 cells, 96 h
  IC50: 4.6 µM
NCI-H2452
  % inhibition at top conc.: 80.91%
  IC50: 35.5 µM
NCI-H3122 cells, 96 h
  IC50: 5.73 µM
NCI-N87, 96 h
  IC50: 0.95 µM
NK-92MI
  IC50: 1.2 µM
NOZ
  IC50: 1.19 µM
NUGC-3 cells, 96 h
  IC50: 0.25 µM
NUGC-4 cells, 96 h
  IC50: 3.65 µM
OCI-AML3
  IC50: 2.34 µM
OCI-LY7 cells, 96 h
  IC50: 1.81 µM
OCUG-1
  IC50: 16.3 µM
OCUM-1 cells, 96 h
  IC50: 9.94 µM
OCUM-2D cells, 96 h
  IC50: 2.59 µM
OCUM-2M cells, 96 h
  IC50: 3.62 µM
OE19, 96 h
  % inhibition at top conc.: 81.07%
  IC50: 19.4 µM
OPM2
  IC50: 0.79 µM
OS-RC-2
  IC50: 3.5 µM
OSC-19 cells, 96 h
  IC50: 8.56 µM
OVCAR-3 cells, 96 h
  IC50: 5.11 µM
OVCAR-8 cells, 96 h
  IC50: 3.13 µM
OZ
  IC50: 15 µM
PANC-1
  IC50: 4.61 µM
PC-3
  IC50: 4.66 µM
PC-9 cells, 96 h
  IC50: 1.97 µM
PEER
  IC50: 2.04 µM
PL45
  IC50: 1.76 µM
PLC/PRF/5
  IC50: 8.47 µM
Pfeiffer cells, 96 h
  IC50: 1.99 µM
RBE cells, 96 h
  IC50: 4.14 µM
RD-ES
  IC50: 0.8 µM
RKO
  IC50: 3.08 µM
RPMI 8226 cells, 96 h
  IC50: 4.04 µM
RPMI-2650 cells, 96 h
  IC50: 1.89 µM
RS4;11
  IC50: 0.33 µM
RT4 cells, 96 h
  IC50: 4.2 µM
RT112/84
  IC50: 0.93 µM
Raji cells, 96 h
  IC50: 2.07 µM
Ramos cells, 96 h
  IC50: 0.64 µM
Reh
  IC50: 0.43 µM
SCC-4, 96 h
  IC50: 2.96 µM
SCC-9 cells, 96 h
  IC50: 8.37 µM
SCC-15 cells, 96 h
  IC50: 3.3 µM
SCH cells, 96 h
  IC50: 6.82 µM
SF268 cells, 96 h
  IC50: 1.43 µM
SF-126 cells, 96 h
  IC50: 1.95 µM
SF-763
  IC50: 7.56 µM
SH-SY5Y
  IC50: 0.27 µM
SJSA-1
  IC50: 3.29 µM
SK-BR-3
  IC50: 0.6 µM
SK-CO-1 cells, 96 h
  IC50: 0.21 µM
SK-HEP-1 cells, 96 h
  IC50: 13.2 µM
SK-LU-1 cells, 96 h
  IC50: 1.38 µM
SK-MEL-5, 96 h
  IC50: 3.2 µM
SK-MEL-28, 96 h
  IC50: 5.62 µM
SK-MES-1
  IC50: 2.63 µM
SK-N-FI cells, 96 h
  IC50: 1.34 µM
SK-N-SH
  IC50: 0.36 µM
SK-NEP-1 cells, 96 h
  IC50: 0.6 µM
SK-OV-3 cells, 96 h
  IC50: 2.88 µM
SK-UT-1 cells, 96 h
  IC50: 6.94 µM
SNU-1 cells, 96 h
  IC50: 2.15 µM
SNU-5, 96 h
  IC50: 2.1 µM
SNU-81
  IC50: 3.7 µM
SNU-216 cells, 96 h
  IC50: 6.07 µM
SNU-354
  IC50: 13.8 µM
SNU-368
  % inhibition at top conc.: 81.47%
  IC50: 20.2 µM
SNU-387
  IC50: 43.4 µM
SNU-398
  IC50: 4.9 µM
SNU-423 cells, 96 h
  IC50: 6.06 µM
SNU-449
  IC50: 3.52 µM
SNU-475 cells, 96 h
  IC50: 0.52 µM
SNU-484 cells, 96 h
  IC50: 4.96 µM
SNU-601 cells, 96 h
  IC50: 0.6 µM
SNU-620 cells, 96 h
  IC50: 7.03 µM
SNU-638 cells, 96 h
  IC50: 4.48 µM
SNU-668 cells, 96 h
  IC50: 4.96 µM
SNU-719 cells, 96 h
  IC50: 13.3 µM
SNU-739
  IC50: 0.81 µM
SNU-761 cells, 96 h
  IC50: 1.39 µM
SNU-2535 cells, 96 h
  IC50: 16.3 µM
SNU-C2A
  IC50: 1.77 µM
SNU-C5 cells, 96 h
  IC50: 2.36 µM
ST486 cells, 96 h
  IC50: 0.26 µM
SU-DHL-1
  IC50: 0.28 µM
SU-DHL-4
  IC50: 0.34 µM
SU-DHL-5 cells, 96 h
  IC50: 0.5 µM
SU-DHL-6 cells, 96 h
  IC50: 1.85 µM
SU-DHL-8
  IC50: 0.7 µM
SUM159PT
  IC50: 3.15 µM
SUP-B15
  IC50: 1.39 µM
SW48 cells, 96 h
  IC50: 1.27 µM
SW 156 cells, 96 h
  IC50: 1.03 µM
SW480
  IC50: 1.82 µM
SW579 cells, 96 h
  IC50: 1.41 µM
SW626 cells, 96 h
  IC50: 3.97 µM
SW684 cells, 96 h
  IC50: 33.4 µM
SW756 cells, 96 h
  % inhibition at top conc.: 84.79%
SW780 cells, 96 h
  IC50: 1.98 µM
SW837 cells, 96 h
  IC50: 4.21 µM
SW948 cells, 96 h
  IC50: 17.8 µM
SW1116 cells, 96 h
  IC50: 7.94 µM
SW1271
  % inhibition at top conc.: 85.04%
  IC50: 17.1 µM
SW1417 cells, 96 h
  IC50: 6.91 µM
SW1990
  IC50: 0.85 µM
SW-13
  IC50: 1.38 µM
SiHa cells, 96 h
  IC50: 10.5 µM
T24 cells, 96 h
  IC50: 1.04 µM
T47D
  IC50: 5.25 µM
T84
  IC50: 3.17 µM
TF-1
  IC50: 5.11 µM
TJ905 cells, 96 h
  IC50: 9.46 µM
TT cells, 96 h
  IC50: 28.1 µM
Toledo cells, 96 h
  IC50: 0.49 µM
U251 cells, 96 h
  IC50: 3.52 µM
U266B1
  IC50: 4.53 µM
U-87 MG cells, 96 h
  IC50: 4.05 µM
U-2932 cells, 96 h
  IC50: 0.79 µM
UACC-812 cells, 96 h
  IC50: 4.61 µM
UO.31 cells, 96 h
  IC50: 4.4 µM
WM-266-4 cells, 96 h
  IC50: 3.12 µM
WSU-DLCL2 cells, 96 h
  IC50: 1.37 µM
WSU-NHL cells, 96 h
  IC50: 0.23 µM
Y-79 cells, 96 h
  IC50: 4.56 µM
YCC-1 cells, 96 h
  IC50: 6.62 µM
YCC-2 cells, 96 h
  IC50: 0.72 µM
YCC-6 cells, 96 h
  IC50: 2.62 µM
YCC-10, 96 h
  IC50: 0.69 µM
YCC-11 cells, 96 h
  IC50: 0.62 µM
Z-138
  IC50: 1.02 µM
ZR-75-1
  IC50: 5.73 µM
ZR-75-30, 96 h
  IC50: 2.99 µM
